Laboratory results: patent US5030760A, “Tetrahydrophthalimides, and their production and use” (Sumitomo Chemical Company, Ltd., priority 1981, dated 1991)

Columns and labels:
barnyardgrass [1] = experiment: Test Example 6, paddy pot perfusion, herbicidal activity; type: in vivo, Echinochloa crus-galli; details: 3 weeks, dry weight; also: ranges in brackets are in %
Procedure: (§1) The application of the tetrahydrophthalimides (I) as herbicides will be illustratively shown in the following Examples wherein the phytotoxicity to cultivated plants and the herbicidal activity on weeds were evaluated as follows: the aerial parts of the test plants were cut off and weighed (fresh weight); the percentage of the fresh weight of the treated plant to that of the untreated plant was calculated with the latter fresh weight taken as 100; and the crop damage and the herbicidal activity were evaluated by the standard given in the table below. The rating values of phytotoxicity, 0 and 1, and those of herbicidal effect, 5 and 4, are generally regarded as satisfactory to protect cultivated plants and control weeds, respectively. The rating values in the paddy field test alone were calculated from the dry weight of the test plants.
(§2) Wagner's pots (1/5000 are) were filled with paddy field soil containing the seeds of broad-leaved weeds (e.g. monochoria, false pimpernel, toothcup) and the seeds of barnyardgrass and hardstem bulrush, and water was poured therein until the depth of water became 4 cm. Rice seedlings of the 3.5-leaf stage and the tubers of arrowhead were transplanted therein and grown for 2 days in a greenhouse. A designed amount of the test compound formulated in an emulsifiable concentrate according to Preparation Example 2 was applied to the pots by perfusion. Thereafter, the test plants were grown for an additional 3 weeks in the greenhouse, and herbicidal activity and phytotoxicity were examined. In this treatment, the emulsifiable concentrate was dispersed in water for application at a perfusion volume of 10 liters per are.

green foxtail [2] = experiment: Test Example 4, pre-emergence treatment, herbicidal activity; type: in vivo, Setaria viridis; details: 20 days; also: ranges in brackets are in %
Procedure: as §1
(§3) Plastic beakers (diameter, 10 cm; height, 10 cm) were filled with upland field soil, and the seeds of corn, cotton and soybean and the seeds of morningglory, velvetleaf, Johnsongrass and green foxtail were separately sown in the beakers. A designed amount of the test compound was sprayed over the top by means of a small hand sprayer. After the spraying, the test plants were grown for 20 days in the greenhouse, and herbicidal activity and phytotoxicity were examined. In this pre-emergence treatment, the test compounds were formulated into an emulsifiable concentrate according to Preparation Example 2 and applied at a spray volume of 5 liters per are by dispersing it in water with the addition of a spreading agent.

wild mustard = experiment: Test Example 1, foliar treatment, herbicidal activity; type: in vivo, Brassica kaber; details: 3 weeks
Method in brief: (§4)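 Plants were sown in upland soil and grown 2 weeks in a greenhouse, then sprayed on the foliage with the compound as an emulsifiable concentrate dispersed in water with a spreading agent (5 liters per are). After 3 further weeks, aerial fresh weight relative to untreated (taken as 100) was converted to a rating.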

barnyardgrass [3] = experiment: as above; type: in vivo, Echinochloa crus-galli; details: 3 weeks
Method in brief: as §4

wild oat = experiment: as above; type: in vivo, Avena fatua; details: 3 weeks; also: ranges in brackets are in %
Method in brief: as §4

jimsonweed = experiment: Test Example 5, spraying over the top, herbicidal activity; type: in vivo, Datura stramonium; details: sprayed over the top, 20 days; also: ranges in brackets are in %
Procedure: as §1
(§5) Plastic trays (35 cm×25 cm×15 cm) were filled with upland field soil, and the seeds of tall morningglory, velvetleaf, jimsonweed, sicklepod, hemp sesbania, prickly side, Johnsongrass, green foxtail and large crabgrass and the seeds of soybean were sown therein. A designed amount of the test compound formulated into a wettable powder according to Preparation Example 1 and dispersed in water was sprayed over the top by means of a small hand sprayer at a spray volume of 5 liters per are. After the spraying, the test plants were grown in greenhouse for 20 days, and phytotoxicity and herbicidal activity were examined.

Johnsongrass [4] = experiment: as above; type: in vivo, Sorghum halepense; details: sprayed over the top, 20 days
Procedure: as §1, §5

cotton = experiment: Test Example 4, pre-emergence treatment, phytotoxicity to cotton; type: in vivo; details: 20 days; also: ranges in brackets are in %
Procedure: as §1, §3

hardstem bulrush = experiment: Test Example 6, paddy pot perfusion, herbicidal activity; type: in vivo, Scirpus juncoides; details: 2.5 g/are, 3 weeks, dry weight; also: ranges in brackets are in %
Procedure: as §1, §2

large crabgrass = experiment: Test Example 5, spraying over the top, herbicidal activity; type: in vivo, Digitaria sanguinalis; details: sprayed over the top, 20 days; also: ranges in brackets are in %
Procedure: as §1, §5

rice plant = experiment: Test Example 6, paddy pot perfusion, phytotoxicity to rice plant; type: in vivo; details: 3 weeks, dry weight; also: ranges in brackets are in %
Procedure: as §1, §2

green foxtail [5] = experiment: Test Example 5, spraying over the top, herbicidal activity; type: in vivo, Setaria viridis; details: sprayed over the top, 20 days; also: ranges in brackets are in %
Procedure: as §1, §5

velvetleaf [6] = experiment: Test Example 1, foliar treatment, herbicidal activity; type: in vivo, Abutilon theophrasti; details: 3 weeks; also: ranges in brackets are in %
Method in brief: as §4

soybean [7] = experiment: Test Example 5, spraying over the top, phytotoxicity to soybean; type: in vivo; details: sprayed over the top, 20 days; also: ranges in brackets are in %
Procedure: as §1, §5

Johnsongrass [8] = experiment: Test Example 4, pre-emergence treatment, herbicidal activity; type: in vivo, Sorghum halepense; details: 20 days; also: ranges in brackets are in %
Procedure: as §1, §3

tall morningglory = experiment: Test Example 5, spraying over the top, herbicidal activity; type: in vivo, Ipomoea purpurea; details: sprayed over the top, 20 days; also: ranges in brackets are in %
Procedure: as §1, §5

velvetleaf [9] = experiment: as above; type: in vivo, Abutilon theophrasti; details: sprayed over the top, 20 days
Procedure: as §1, §5

corn [10] = experiment: Test Example 4, pre-emergence treatment, phytotoxicity to corn; type: in vivo; details: 20 days; also: ranges in brackets are in %
Procedure: as §1, §3

prickly sida = experiment: Test Example 5, spraying over the top, herbicidal activity; type: in vivo, Sida spinosa; details: sprayed over the top, 20 days; also: ranges in brackets are in %
Procedure: as §1, §5

corn [11] = experiment: Test Example 1, foliar treatment, phytotoxicity to corn; type: in vivo; details: 3 weeks; also: ranges in brackets are in %
Method in brief: as §4

morningglory = experiment: Test Example 4, pre-emergence treatment, herbicidal activity; type: in vivo; details: 20 days; also: ranges in brackets are in %
Procedure: as §1, §3

broad-leaved weed = experiment: Test Example 6, paddy pot perfusion, herbicidal activity; type: in vivo, monochoria, false pimpernel, toothcup; details: 3 weeks, dry weight; also: ranges in brackets are in %
Procedure: as §1, §2

soybean [12] = experiment: Test Example 4, pre-emergence treatment, phytotoxicity to soybean; type: in vivo; details: 20 days; also: ranges in brackets are in %
Procedure: as §1, §3

velvetleaf [13] = experiment: Test Example 4, pre-emergence treatment, herbicidal activity; type: in vivo, Abutilon theophrasti; details: 20 days; also: ranges in brackets are in %
Procedure: as §1, §3

arrowhead = experiment: Test Example 6, paddy pot perfusion, herbicidal activity; type: in vivo, Sagittaria pygmaea; details: 3 weeks, dry weight; also: ranges in brackets are in %
Procedure: as §1, §2

sicklepod = experiment: Test Example 5, spraying over the top, herbicidal activity; type: in vivo, Cassia obtusifolia; details: sprayed over the top, 20 days; also: ranges in brackets are in %
Procedure: as §1, §5

hemp sesbania = experiment: as above; type: in vivo, Sesbania exaltator; details: sprayed over the top, 20 days; also: ranges in brackets are in %
Procedure: as §1, §5
For Herbicidal activity, Barnyardgrass in this document: ranges in brackets are in %.
For Herbicidal activity, Velvetleaf in this document: ranges in brackets are in %.

COc1cc(N2C(=O)C3=C(CCCC3)C2=O)c(F)cc1Cl [Compound No. 1]
1 (41-60): Herbicidal activity, Barnyardgrass (barnyardgrass [3]; 1.25 g/are) | Herbicidal activity, Wild cat (wild oat; 1.25 g/are)
5 (0): Herbicidal activity, Barnyardgrass (barnyardgrass [1]; 2.5 g/are) | Herbicidal activity, Green foxtail (green foxtail [2]; 10 g/are) | Herbicidal activity, Wild mustard (wild mustard; 1.25 g/are) | Herbicidal activity, Wild mustard (wild mustard; 5 g/are) | Herbicidal activity, Barnyardgrass (barnyardgrass [3]; 5 g/are) | Herbicidal activity, Wild cat (wild oat; 5 g/are) | Herbicidal activity, Jimsonweed (jimsonweed; 3 g/are) | Herbicidal activity, Jimsonweed (jimsonweed; 9 g/are) | Herbicidal activity, Johnsongrass (Johnsongrass [4]; 3 g/are) | Herbicidal activity, Johnsongrass (Johnsongrass [4]; 9 g/are) | Herbicidal activity, Large crabgrass (large crabgrass; 3 g/are) | Herbicidal activity, Large crabgrass (large crabgrass; 9 g/are) | Herbicidal activity, Green foxtail (green foxtail [5]; 3 g/are) | Herbicidal activity, Green foxtail (green foxtail [5]; 9 g/are) | Herbicidal activity, Velvetleaf (velvetleaf [6]; 1.25 g/are) | Herbicidal activity, Velvetleaf (velvetleaf [6]; 5 g/are) | Herbicidal activity, Johnsongrass (Johnsongrass [8]; 2.5 g/are) | Herbicidal activity, Johnsongrass (Johnsongrass [8]; 10 g/are) | Herbicidal activity, Tall morningglory (tall morningglory; 9 g/are) | Herbicidal activity, Velvetleaf (velvetleaf [9]; 3 g/are) | Herbicidal activity, Velvetleaf (velvetleaf [9]; 9 g/are) | Herbicidal activity, Prickly sida (prickly sida; 3 g/are) | Herbicidal activity, Prickly sida (prickly sida; 9 g/are) | Herbicidal activity, Morningglory (morningglory; 10 g/are) | Herbicidal activity, Broad-leaved weed (broad-leaved weed; 1.25 g/are) | Herbicidal activity, Broad-leaved weed (broad-leaved weed; 2.5 g/are) | Herbicidal activity, Velvetleaf (velvetleaf [13]; 2.5 g/are) | Herbicidal activity, Velvetleaf (velvetleaf [13]; 10 g/are) | Herbicidal activity, Arrowhead (arrowhead; 2.5 g/are) | Herbicidal activity, Sicklepod (sicklepod; 9 g/are) | Herbicidal activity, Hemp sesbania (hemp sesbania; 3 g/are) | Herbicidal activity, Hemp sesbania (hemp sesbania; 9 g/are)
1 (90-99): Phytotoxicity, Rice plant (rice plant; 1.25 g/are) | Phytotoxicity, Rice plant (rice plant; 2.5 g/are) | Phytotoxicity, Corn (corn [10]; 2.5 g/are) | Phytotoxicity, Corn (corn [11]; 5 g/are)
2 (80-89): Phytotoxicity, Cotton (cotton; 10 g/are) | Phytotoxicity, Corn (corn [10]; 10 g/are)
0 (100): Phytotoxicity, Cotton (cotton; 2.5 g/are) | Phytotoxicity, Soybean (soybean [7]; 3 g/are) | Phytotoxicity, Soybean (soybean [7]; 9 g/are) | Phytotoxicity, Corn (corn [11]; 1.25 g/are) | Phytotoxicity, Soybean (soybean [12]; 2.5 g/are) | Phytotoxicity, Soybean (soybean [12]; 10 g/are)
4 (1-10): Herbicidal activity, Barnyardgrass (barnyardgrass [1]; 1.25 g/are) | Herbicidal activity, Green foxtail (green foxtail [2]; 2.5 g/are) | Herbicidal activity, Hardstem bulrush (hardstem bulrush) | Herbicidal activity, Tall morningglory (tall morningglory; 3 g/are) | Herbicidal activity, Morningglory (morningglory; 2.5 g/are) | Herbicidal activity, Arrowhead (arrowhead; 1.25 g/are) | Herbicidal activity, Sicklepod (sicklepod; 3 g/are)
